Laboratory results published in PMC8652888, “Angiogenesis, Anti-Tumor, and Anti-Metastatic Activity of Novel α-Substituted Hetero-Aromatic Chalcone Hybrids as Inhibitors of Microtubule Polymerization” (Frontiers in Chemistry, 2021).
Where “and” joins values, the source holds several entries; their conditions need not be identical. Identical values can stand only once. Like-named read-outs stand apart in the source and are kept apart here.

Assays:
[1] = tested on: MCF-7 cells implanted in zebrafish embryos; test: Zebrafish xenograft assay; format: in vivo; details: 2.5, 5, 7.5 μΜ, 72 h
Procedure: To examine the in vivo anti-tumor and anti-metastasis potency of 7m, we implanted Cell-Tracker Red CMTPX-labeled MCF-7 cells into the yolk of Tg (flk: EGFP) 48 hpf embryos, and different concentrations of 7m (2.5, 5, 7.5 μΜ) were added. The intensity of the red fluorescence is proportional to the size of the xenograft tumor. After 72 h, the effects of 7m on the tumor mass development and cancer cell metastasis were assessed by fluorescence microscopy. […] Without drug treatment, MCF-7 cells disseminated and migrated widely away from the original area, and some tumor cells even migrated into the blood vessels of the zebrafish tail at 72 hpf.
The tumor cells MCF-7 were labeled with Red CMTPX, and then the labeled tumor cells were digested and resuspended. A hundred labeled tumor cells per 1 nl were injected into the zebrafish embryos developed for 48 h. The zebrafish injected with tumor cells were incubated in an incubator at 28.5°C for about 1 h under the action of different concentrations of 7m and then were transferred to an incubator at 35°C.

[2] = tested on: microtubule network in MCF-7 cells; test: Immunofluorescent staining of microtubule network; format: cell-based, human; details: 0.4 μM, 24 h
Procedure: Microtubule dynamics play an essential role in cancer cell growth. To examine whether compound 7m is able to disrupt microtubule dynamics, an immunofluorescent assay was carried out in MCF-7 cells.
Then the cells were washed with PBS three times. After permeabilization with 0.25% Triton X-100 for 5 min, the cells were washed with PBS three times and blocked in 5% bovine serum albumin (BSA) for 40 min. The cells were incubated with rabbit anti-α-tubulin primary antibody containing 5% BSA at room temperature for 5–6 h and washed with PBS three times. Cells were finally visualized under a fluorescence microscope.

[3] = tested on: U937; test: Antiproliferative activity, CCK-8 assay; format: cell-based
Procedure, shortened: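 U937 cells in log phase seeded at 8,000/well with compound-containing medium and incubated 72 h at 37 °C, 5% CO2. Proliferation read by CCK-8 dye after a further 3–4 h incubation, against blank-medium wells.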

[4] = tested on: HepG2; test: Antiproliferative activity, SRB assay; format: cell-based, human
Procedure, shortened: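 Cells seeded at 3 × 10^3–4 × 10^3 per well, grown 24 h, then exposed to compounds at various concentrations for 72 h at 37 °C. TCA-fixed cells stained with 0.4% SRB; bound dye dissolved in 10 mM Tris base and OD read at 560 nm.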

[5] = tested on: tubulin; test: Tubulin polymerization in vitro (fluorescence); format: biochemical; details: 37°C; read-out: IC50, inhibition of tubulin polymerization
Procedure: Data are presented as the mean ± SD from three independent experiments. **p < 0.01 vs. the vehicle control.
An in vitro assay was performed to monitor the time-dependent polymerization of tubulin into microtubules. The 96-well cell culture plate was incubated at 37°C for 10 min, and test compounds and reference compounds were prepared with a 10× analyte stock solution. Five microliters of 10× analyte stock solution was added to a 96-well plate, and the microplate reader was heated at 37°C for 1 min. Immediately 85 μl of Tubulin Stock was drawn and mixed with the above mixture to prepare the tubulin reaction solution, and 50 μl of the tubulin reaction solution was to each well. The multifunctional microplate reader measured the absorbance, and the measured fluorescence value represents the level of tubulin in the polymerized state in the reaction solution.

[6] = tested on: MCF-7 cells; test: Wound healing assay; format: cell-based, human; details: 48 h
Procedure: In order to evaluate whether 7m could suppress migration and invasion, the MCF-7 cell culture was performed by wound healing and Transwell Matrigel assay, respectively.
MCF-7 cells and HUVECs cells were grown in 24-well plates at a density of 1 × 10^6 cells per well for 24 h. Scratches were made in confluent monolayers by […] pipette tips. The media containing different concentrations of 7m were added to the Petri dishes. […] The migration distance of cells migrated to the wound area was measured manually.

[7] = tested on: Caspase-3/-7/-9 and PARP in MCF-7 cells; test: Western blot of apoptosis-related proteins; format: cell-based, human
Excerpt: The Caspase family proteins are considered to be critical regulators of cell apoptosis and facilitate cellular disassembly. Among them, Caspase-9 is termed as a typical caspase and is usually activated first, which in turn activates the “executioner” of apoptosis induction, in particular, Caspase-3. It is known that the […] of poly (ADP-ribose) polymerase (PARP), a downstream substrate of Caspase-3, is a common feature of nuclear fragmentation and chromatin condensation ([Hensley and Kyprianou, 2013]). Thus, the association between 7m-induced apoptosis and the expression of these proteins was investigated by Western blot analysis. MCF-7 cells were treated with 7m at different concentrations (100, 200, and 400 nM) for 48 h.
MCF-7 cells were seeded into […] dishes at a density of 6 × 10^5/dish and incubated for 24 h. After treating the cells with the compound 7m, the cells were cultured for 48 h and washed with PBS, and then the soluble and insoluble tubulin fractions were collected. Protein quantification was performed by BCA Protein Concentration Determination Kit following centrifugation at 12,000 rpm for 10 min at 4°C. Cell lysates were separated by SDS-PAGE at 80 V constant voltage for 30–40 min. […] After 5% skim milk was blocked for 1 h, the primary antibody was added and incubated overnight before being washed three times with PBST. The secondary antibody was incubated for 2 h at room temperature the next day and subsequently washed three times with PBST. Then the signal was detected with ECL.

3-(benzofuran-6-yl)-2-methyl-1-(3,4,5-trimethoxyphenyl)prop-2-en-1-one [Compound 7m]
fluorescence intensity and tumor size of MCF-7 cells vs vehicle [1]: reduced the fluorescence intensity and tumor size
migration number of implanted MCF-7 cells [1]: notably reduced in a dose-dependent manner
effect on microtubule organization [2]: significant disruption of microtubule organization
IC50 ([3]; 72 h, triplicate, mean ± SD, read-out: IC50 ± SD, U937): 82 ± 2 nM
IC50 ([3]; supplement raw data of table 2, read-out: IC50(U937)): 81.6 nM
IC50 ([4]; 72 h, triplicate, mean ± SD, read-out: IC50 ± SD, HepG2): 70 ± 1 nM
IC50 ([4]; supplement raw data of table 2, read-out: IC50(Hepg2)): 70.5 nM
IC50 [5]: 12200 nM
wound healing of MCF-7 cells (migration) [6]: significantly inhibited the wound healing
Caspase3, band quantification ([7]; 100nM, two runs): 1.6879 and 1.67
Caspase7, band quantification ([7]; 100nM, two runs): 1.25 and 1.4891
Caspase9, band quantification ([7]; 100nM, two runs): 0.8806
Cleaved caspase 3, band quantification ([7]; 100nM, two runs): 0.4362 and 0.4615
Cleaved caspase 7, band quantification ([7]; 100nM, two runs): 0.3077 and 0.3272
Cleaved caspase 9, band quantification ([7]; 100nM, two runs): 0.7024 and 0.6835
Cleaved parp, band quantification ([7]; 100nM, two runs): 0.5428 and 0.547
Caspase3, band quantification ([7]; 200nM, two runs): 1.615 and 1.544
Caspase7, band quantification ([7]; 200nM, two runs): 1.204 and 1.374
Caspase9, band quantification ([7]; 200nM, two runs): 0.8807 and 0.8294
Cleaved caspase 3, band quantification ([7]; 200nM, two runs): 0.3538 and 0.3842
Cleaved caspase 7, band quantification ([7]; 200nM, two runs): 0.3681 and 0.3821
Cleaved caspase 9, band quantification ([7]; 200nM, two runs): 0.8845 and 0.8641
Cleaved parp, band quantification ([7]; 200nM, two runs): 0.6141 and 0.6251
PARP, band quantification ([7]; 200nM, two runs): 0.2886 and 0.4533
Caspase3, band quantification ([7]; 400nM, two runs): 1.359 and 1.362
Caspase7, band quantification ([7]; 400nM, two runs): 1.134 and 1.286
Caspase9, band quantification ([7]; 400nM, two runs): 0.8246 and 0.7921
Cleaved caspase 3, band quantification ([7]; 400nM, two runs): 0.6252 and 0.6493
Cleaved caspase 7, band quantification ([7]; 400nM, two runs): 0.3556 and 0.4028
Cleaved caspase 9, band quantification ([7]; 400nM, two runs): 0.8063 and 0.765
Cleaved parp, band quantification ([7]; 400nM, two runs): 0.6767 and 0.7365
activation of Caspase-3/-7/-9 ([7]; 100, 200, 400 nM, 48 h): concentration-dependent activation
cleavage of PARP ([7]; 100, 200, 400 nM, 48 h): significant cleavage of PARP
